Reference: patent US5283245A, “Heterocyclic thiazole derivatives and pharmaceutical compositions comprising said derivatives” (Imperial Chemical Industries PLC, priority 1989, dated 1994)

Experiments:
5-LO [1] = biological target: T1, 5-LO (Homo sapiens, UniProt P09917); experiment: heparinised human blood challenged with calcium ionophore A23187, LTB4 radioimmunoassay (test b); assay type: cell-based; settings: A23187 challenge
T1 construct: incubating a test compound with heparinised human blood; endogenous in cells; host or cells: heparinised whole human blood (leukocytes, by own knowledge)
T1 sequence (P09917 1-674): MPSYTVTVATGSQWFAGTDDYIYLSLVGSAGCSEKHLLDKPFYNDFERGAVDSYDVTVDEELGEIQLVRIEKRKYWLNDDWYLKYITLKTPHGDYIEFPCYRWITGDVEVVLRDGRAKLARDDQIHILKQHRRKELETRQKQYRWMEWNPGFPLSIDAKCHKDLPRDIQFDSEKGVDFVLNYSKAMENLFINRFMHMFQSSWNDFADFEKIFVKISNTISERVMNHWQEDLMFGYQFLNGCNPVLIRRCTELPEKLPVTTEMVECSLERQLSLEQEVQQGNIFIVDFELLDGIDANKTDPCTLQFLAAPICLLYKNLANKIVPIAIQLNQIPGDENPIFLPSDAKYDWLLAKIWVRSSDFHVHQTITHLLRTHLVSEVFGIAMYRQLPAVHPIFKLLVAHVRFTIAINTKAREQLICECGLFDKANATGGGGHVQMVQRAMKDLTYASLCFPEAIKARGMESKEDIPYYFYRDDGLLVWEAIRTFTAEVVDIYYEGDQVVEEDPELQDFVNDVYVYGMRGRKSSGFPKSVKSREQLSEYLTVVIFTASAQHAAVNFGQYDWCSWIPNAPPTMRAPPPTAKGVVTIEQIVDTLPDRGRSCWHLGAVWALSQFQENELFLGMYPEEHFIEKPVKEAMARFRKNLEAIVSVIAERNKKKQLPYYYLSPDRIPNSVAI
Description: (§1) b) An in vitro assay system involving incubating a test compound with heparinised human blood, prior to challenge with the calcium ionophore A23187 and then indirectly measuring the inhibitory effects on 5-LO by assaying the amount of LTB4 using the specific radioimmunoassay described by Carey and Forder (F. Carey and R. A. Forder, Brit. J. Pharmacol. 1985, 84, 34P) which involves the use of a protein-LTB4 conjugate produced using the procedure of Young et alia (Prostaglandins, 1983, 26(4),605-613). The effects of a test compound on the enzyme cyclooxygenase (which is involved in the alternative metabolic pathway for arachidonic acid and gives rise to prostaglandins, thromboxanes and related metabolites) may be measured at the same time using the specific radioimmunoassay for thromboxane B2 (TxB2) described by Carey and Forder (see above). This test provides an indication of the effects of a test compound against 5-LO and also cyclooxygenase in the presence of blood cells and proteins. It permits the selectivity of the inhibitory effect on 5-LO or cyclooxygenase to be assessed.

cyclooxygenase = biological target: T2, cyclooxygenase (Homo sapiens, UniProt P23219); experiment: heparinised human blood challenged with calcium ionophore A23187, TxB2 radioimmunoassay (test b); assay type: cell-based; settings: A23187 challenge
T2 construct: incubating a test compound with heparinised human blood; endogenous in cells; host or cells: heparinised whole human blood (platelets, by own knowledge)
T2 sequence (P23219 24-599): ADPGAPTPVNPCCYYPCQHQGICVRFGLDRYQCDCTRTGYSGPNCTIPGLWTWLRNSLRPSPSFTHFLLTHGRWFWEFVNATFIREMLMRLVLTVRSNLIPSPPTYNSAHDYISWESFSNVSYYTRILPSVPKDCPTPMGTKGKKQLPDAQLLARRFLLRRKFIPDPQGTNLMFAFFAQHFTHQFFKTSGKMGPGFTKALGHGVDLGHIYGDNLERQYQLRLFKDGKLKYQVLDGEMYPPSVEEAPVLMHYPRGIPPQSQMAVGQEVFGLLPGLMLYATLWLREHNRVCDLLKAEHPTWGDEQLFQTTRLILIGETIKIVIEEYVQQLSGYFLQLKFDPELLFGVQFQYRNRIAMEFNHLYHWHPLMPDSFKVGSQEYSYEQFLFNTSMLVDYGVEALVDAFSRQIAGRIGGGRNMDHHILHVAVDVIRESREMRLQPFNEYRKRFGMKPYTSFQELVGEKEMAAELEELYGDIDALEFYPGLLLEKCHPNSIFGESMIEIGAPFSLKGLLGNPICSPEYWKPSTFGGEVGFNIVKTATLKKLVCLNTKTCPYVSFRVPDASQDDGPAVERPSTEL
Description: as §1

5-LO [2] = biological target: T3, 5-LO (Rattus norvegicus, UniProt P12527); experiment: ex vivo assay: administration of compound, blood collection, A23187 challenge, LTB4 radioimmunoassay (test c); assay type: in vivo; settings: oral administration
T3 construct: blood collection, heparinisation, challenge with A23187 and radioimmunoassay of LTB4 and TxB2; endogenous in cells
T3 sequence (P12527 1-673): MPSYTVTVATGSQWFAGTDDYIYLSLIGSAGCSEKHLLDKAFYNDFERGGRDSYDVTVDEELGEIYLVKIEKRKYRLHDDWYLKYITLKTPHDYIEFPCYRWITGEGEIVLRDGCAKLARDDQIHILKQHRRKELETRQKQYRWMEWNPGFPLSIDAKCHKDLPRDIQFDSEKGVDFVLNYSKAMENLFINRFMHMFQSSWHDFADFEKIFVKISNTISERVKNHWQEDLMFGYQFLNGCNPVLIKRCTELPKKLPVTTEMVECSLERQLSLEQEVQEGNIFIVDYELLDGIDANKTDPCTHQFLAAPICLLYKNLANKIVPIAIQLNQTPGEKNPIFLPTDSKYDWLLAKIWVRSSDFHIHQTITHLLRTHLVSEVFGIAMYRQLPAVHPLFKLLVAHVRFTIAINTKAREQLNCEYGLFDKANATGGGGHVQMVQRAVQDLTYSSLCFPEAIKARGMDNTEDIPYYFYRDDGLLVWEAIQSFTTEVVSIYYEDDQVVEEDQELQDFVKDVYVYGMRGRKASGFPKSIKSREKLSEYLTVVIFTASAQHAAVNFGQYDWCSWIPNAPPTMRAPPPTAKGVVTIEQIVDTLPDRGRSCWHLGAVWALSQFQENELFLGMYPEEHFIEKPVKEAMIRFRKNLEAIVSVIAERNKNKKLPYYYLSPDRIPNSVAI

An IC50 (5-LO [1]) of 700 nM, an IC50 (cyclooxygenase) of over 40000 nM and an ED50 (5-LO [2]) of 50 mg/kg were found for `CCC(OC)(c1cccc(OCC#Cc2ccccn2)c1)c1nccs1` (stereo not drawn) [2-[1-[3-(3-(2-pyridyl)prop-2-yn-1-yloxy)phenyl]-1-methoxypropyl]thiazole] in this work.
